What is called EC50 is the concentration needed to bring the measured effect to its halfway point.

Where two headings read alike, the source gives them in different places. Peptide text beside a SMILES is read from it. Some results are limits rather than exact numbers.

Format in all cases: cell-based
One data set relates to rat peritoneal cells. As to the kind of experiment: Ex vivo histamine release assay in rat peritoneal cells (vs. Compound 48/80). The gist of the method: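 Resident peritoneal cells were lavaged from male Sprague Dawley rats and kept in HBSS/20 mM HEPES/0.2% BSA at 25,000 cells/well. They were exposed for 30 min at room temperature to compound at 3 points (100, 10, 1 μM DMSO stocks, 1% DMSO final). Released histamine was measured by HTRF and normalised to total histamine after Triton lysis. Compound 48/80 was the reference.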

The target of data set [1] is T1, human APJ receptor (hAPJ) (Homo sapiens, UniProt P35414).
T1 construct: expressed in transfected cells
T1 sequence (P35414 1-380): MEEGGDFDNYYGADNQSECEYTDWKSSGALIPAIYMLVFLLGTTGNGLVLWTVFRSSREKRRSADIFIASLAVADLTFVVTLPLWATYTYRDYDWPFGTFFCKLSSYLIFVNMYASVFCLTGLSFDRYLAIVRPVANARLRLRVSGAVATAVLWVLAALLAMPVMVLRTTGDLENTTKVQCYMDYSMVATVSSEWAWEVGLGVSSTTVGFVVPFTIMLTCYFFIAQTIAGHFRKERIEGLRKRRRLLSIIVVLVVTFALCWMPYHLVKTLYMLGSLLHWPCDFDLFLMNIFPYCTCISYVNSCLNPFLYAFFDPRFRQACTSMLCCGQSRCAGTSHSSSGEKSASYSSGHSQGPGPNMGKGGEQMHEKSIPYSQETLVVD
Description: HTRF cAMP assay: inhibition of NKH477-stimulated cAMP in HEK cells stably expressing hAPJ. The following applies: for Emax: HEK293, read-out: % IA, bound stated; for % IA (cAMP inhibition, hAPJ HEK): intrinsic activity; for Ranking: composite class of EC50 (hAPJ), % IA and % histamine or formal (+) charge; for inhibition of NKH477-stimulated increase in cAMP, dose dependent: concentration response curves, FIGS. 1 and 2, HEK cells stably expressing APJ. The gist of the method:
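HEK cells stably expressing hAPJ, induced with 1 nG/mL doxycycline and seeded overnight at 40 k/well. cAMP read by HTRF competitive immunoassay using cryptate-labeled anti-cAMP antibody and d2-labeled cAMP.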
(In TR-FRET formats the signal depends on donor and acceptor labels being close together.)

A further data set concerns the target T2, APJ receptor (Homo sapiens, UniProt P35414).
T2 sequence (P35414 1-380): T1 sequence (P35414 1-380)
As to the kind of experiment: Cellul'erk ERK phosphorylation assay in APJ-TREX cells. The arrangement: expressed in transfected cells; host or cells: Human TRex (APJ-TREX) cells, doxycycline-inducible expression. The following applies: relative to max pyr-apelin-13 activity at 100 nM; 3 or 0.3 μM compound, 5 minutes.

A further data set addresses CXCR4 receptor (Homo sapiens, UniProt P61073). As to the kind of experiment: Activity at CXCR4 receptor (selectivity, Gi-coupled GPCR). Particulars: FIGS. 6A-6C, selectivity vs. hAPJ.
[2] abbreviates: HTRF cAMP Assay, per data of Table 6.
The mark [3] stands for this setting: HTRF cAMP Assay, per data of Table 6, read-out: EC50 (hAPJ), inhibition of cAMP production, bound stated.
The mark [4] stands for this setting: Table 6, hAPJ HEK cells, NKH477-stimulated cAMP, read-out: EC50 (cAMP inhibition, hAPJ HEK).

CXCR4 receptor, sequence (P61073 whole entry): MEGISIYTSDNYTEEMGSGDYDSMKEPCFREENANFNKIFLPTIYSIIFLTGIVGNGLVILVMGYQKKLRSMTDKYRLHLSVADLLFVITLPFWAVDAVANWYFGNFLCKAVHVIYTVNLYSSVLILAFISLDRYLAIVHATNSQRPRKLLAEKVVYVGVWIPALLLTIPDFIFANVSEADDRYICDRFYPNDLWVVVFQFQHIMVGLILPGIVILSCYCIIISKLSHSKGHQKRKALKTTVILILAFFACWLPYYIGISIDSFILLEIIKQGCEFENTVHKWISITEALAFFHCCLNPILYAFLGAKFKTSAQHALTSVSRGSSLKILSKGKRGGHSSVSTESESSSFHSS

Regarding `CCCCCCCCCCCCCCCC(=O)N[C@@H](CC(=O)O)C(=O)N[C@H](C(=O)N[C@@H](Cc1ccccc1)C(=O)N[C@@H](CCC(N)=O)C(=O)N[C@@H](CO)C(=O)N[C@@H](CO)C(=O)N[C@@H](CCC(=O)O)C(=O)N[C@H](CCCCN)C(=O)N[C@@H](CCCNC(=N)N)C(=O)N[C@@H](CCCNC(=N)N)C(=O)N[C@@H](CO)C(=O)N[C@@H](C)C(=O)N[C@@H](CC(=O)O)C(=O)N[C@@H](CCC(N)=O)C(=O)N[C@@H](Cc1ccccc1)C(=O)N[C@H](C(N)=O)[C@@H](C)CC)C(C)C` [Compound 12] (HELM PEPTIDE1{[CCCCCCCCCCCCCCCC(=O)[*:2]].D.V.F.Q.S.S.E.[dK].R.R.S.A.D.Q.F.I.[am]}$$$$V2.0), in the data set with rat peritoneal cells, the “Histamine (% vs. 48/80)” value amounted to 9%. In addition, the Emax in data set [1] (setting [2]) is no less than 80%. For the same compound, the EC50 in data set [1] (setting [3]) is no more than 25 nM. The EC50 in data set [1] (setting [4]) stood at 12 nM. The “% IA (cAMP inhibition, hAPJ HEK)” value in data set [1] (Table 6, hAPJ HEK cells) amounted to 97%. Besides, in data set [1], the Ranking entry is “***** (EC50≦25 nM (hAPJ), % IA≧80% and either % histamine≦35% or formal (+) charge≦1)”; the “inhibition of NKH477-stimulated increase in cAMP, dose dependent” value (shortened to “inhibition of NKH477-stimulated increase”) is “inhibited”. In addition, on APJ receptor, the “Average % Activity (ERK agonist activity)” value (from here on “Average % Activity”) stood at 51.8%. Further, at CXCR4 receptor, the “activity at the CXCR4 receptor” value was “lack of dose-responsive activity”.

With `CCCCCCCCCCCCCCCC(=O)N[C@@H](CC(=O)O)C(=O)N[C@H](C(=O)N[C@@H](Cc1ccccc1)C(=O)N[C@@H](CCCNC(=N)N)C(=O)N[C@@H](CO)C(=O)N[C@@H](CO)C(=O)N[C@@H](CCC(=O)O)C(=O)N[C@H](CCCCN)C(=O)N[C@@H](CCCNC(=N)N)C(=O)N[C@@H](CCCNC(=N)N)C(=O)N[C@@H](CO)C(=O)N[C@@H](C)C(=O)N[C@@H](CC(=O)O)C(=O)N[C@@H](CCC(N)=O)C(=O)N[C@@H](Cc1ccccc1)C(=O)N[C@H](C(N)=O)[C@@H](C)CC)C(C)C` [Compound 13] (HELM PEPTIDE1{[CCCCCCCCCCCCCCCC(=O)[*:2]].D.V.F.R.S.S.E.[dK].R.R.S.A.D.Q.F.I.[am]}$$$$V2.0), the “Histamine (% vs. 48/80)” value with rat peritoneal cells worked out at 17%. Moreover, the Emax in data set [1] (setting [2]) was no less than 80%. Also, the EC50 in data set [1] (setting [3]) is no more than 25 nM. In data set [1] (setting [4]), the EC50 stood at 6 nM. In addition, the “% IA (cAMP inhibition, hAPJ HEK)” value in data set [1] (Table 6, hAPJ HEK cells) is recorded as 96%. Besides, in data set [1], the Ranking result was “***** (EC50≦25 nM (hAPJ), % IA≧80% and either % histamine≦35% or formal (+) charge≦1)”; the “inhibition of NKH477-stimulated increase” value is reported as “inhibited”. The “Average % Activity” value on APJ receptor amounted to 44.0%. Also, at CXCR4 receptor, the “activity at the CXCR4 receptor” value was “lack of dose-responsive activity”.

As to `CCCCCCCCCCCCCCCC(=O)N[C@H](C(=O)N[C@H](C(=O)N[C@@H](Cc1ccccc1)C(=O)N[C@@H](CCCNC(=N)N)C(=O)N[C@@H](CO)C(=O)N[C@@H](CCC(=O)O)C(=O)N[C@H](CCCCN)C(=O)N[C@@H](CCCNC(=N)N)C(=O)N[C@@H](CCCNC(=N)N)C(=O)N[C@@H](CO)C(=O)N[C@@H](C)C(=O)N[C@@H](CC(=O)O)C(=O)N[C@@H](CCC(N)=O)C(=O)N[C@@H](Cc1ccccc1)C(=O)N[C@H](C(N)=O)[C@@H](C)CC)C(C)C)[C@@H](C)O` [Compound 14] (HELM PEPTIDE1{[CCCCCCCCCCCCCCCC(=O)[*:2]].T.V.F.R.S.E.[dK].R.R.S.A.D.Q.F.I.[am]}$$$$V2.0), in data set [1] (setting [2]), the Emax was no less than 80%. Further, in data set [1] (setting [3]), the EC50 is no more than 25 nM. Moreover, the EC50 in data set [1] (setting [4]) came out at 8 nM. In addition, the “% IA (cAMP inhibition, hAPJ HEK)” value in data set [1] (Table 6, hAPJ HEK cells) is 87%. Moreover, in data set [1], the Ranking result was “**** (EC50≦25 nM (hAPJ), % IA≧80% and either % histamine>35% or formal (+) charge>1)”; the “inhibition of NKH477-stimulated increase” value is listed as “inhibited”. Further, the “Average % Activity” value at APJ receptor is on record as 58.2%. In addition, the “activity at the CXCR4 receptor” value on CXCR4 receptor was “lack of dose-responsive activity”.

The values above are taken from patent US20160159861A1, “APJ Receptor Compounds” (priority 2013, published 2016).
